From the supplement of paper PMC9013687

Columns and labels:
Danio rerio embryo [1] = tested on: Danio rerio embryo
Protocol: (§1)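 Zebrafish embryos (UFZ-OBI strain) were exposed from 2 hpf for 48 h (2 dpf) or 96 h (4 dpf) at 28 °C; spontaneous tail coiling was scored at 25 hpf. Morphological features from automated image analysis (FishInspector), heart rate and locomotor response were fitted with drc models. Quantal endpoints were dichotomised at 2.5 SD from controls and fitted with a log-logistic model; heart rate, pigmentation and STC were normalised to the replicate control mean. Betamethasone was tested as betamethasone dipropionate, diflorasone as diflorasone diacetate.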

Danio rerio embryo [2] = conditions: exposure time: 4 dpf
Protocol: as §1

Danio rerio embryo [3] = assay: EC50 Curvature_Increase
Protocol: as §1

Danio rerio embryo [4] = assay: EC50 Body length_Decrease
Protocol: as §1

Danio rerio embryo [5] = assay: EC50 Bladder size_Decrease; conditions: exposure time: 4 dpf
Protocol: as §1

Danio rerio embryo [6] = assay: EC50 Pericard size_Increase
Protocol: as §1

Danio rerio embryo [7] = assay: EC50 Yolk sac size_Increase; conditions: exposure time: 4 dpf
Protocol: as §1

Danio rerio embryo [8] = assay: EC50 Eye-jaw distance_Decrease; conditions: exposure time: 4 dpf
Protocol: as §1

Danio rerio embryo [9] = assay: EC50 Otolith-eye distance_Decrease; conditions: exposure time: 4 dpf
Protocol: as §1

Danio rerio embryo [10] = assay: EC10 LMR dark; higher = less potent; conditions: exposure time: 4 dpf
Protocol: as §1

Danio rerio embryo [11] = assay: EC20 LMR dark; higher = less potent; conditions: exposure time: 4 dpf
Protocol: as §1

Danio rerio embryo [12] = assay: EC20 Any effect; higher = less potent
Protocol: as §1

Danio rerio embryo [13] = assay: EC10 Any effect; higher = less potent
Protocol: as §1

Danio rerio embryo [14] = assay: EC20 Eye size_Decrease; higher = less potent
Protocol: as §1

Danio rerio embryo [15] = assay: EC10 Curvature_Increase; higher = less potent
Protocol: as §1

Danio rerio embryo [16] = assay: EC20 Curvature_Increase; higher = less potent
Protocol: as §1

Danio rerio embryo [17] = assay: EC10 Head size_Decrease; higher = less potent; conditions: exposure time: 2 dpf
Protocol: as §1

Danio rerio embryo [18] = assay: EC20 Body length_Decrease; higher = less potent
Protocol: as §1

Danio rerio embryo [19] = assay: EC10 Body length_Decrease; higher = less potent
Protocol: as §1

Danio rerio embryo [20] = assay: EC10 Bladder size_Decrease; higher = less potent; conditions: exposure time: 4 dpf
Protocol: as §1

Danio rerio embryo [21] = assay: EC20 Bladder size_Decrease; higher = less potent; conditions: exposure time: 4 dpf
Protocol: as §1

Danio rerio embryo [22] = assay: EC20 Yolk sac size_Increase; higher = less potent; conditions: exposure time: 4 dpf
Protocol: as §1

Danio rerio embryo [23] = assay: EC20 Pericard size_Increase; higher = less potent
Protocol: as §1

Danio rerio embryo [24] = assay: EC10 Yolk sac size_Increase; higher = less potent; conditions: exposure time: 4 dpf
Protocol: as §1

Danio rerio embryo [25] = assay: EC10 Pericard size_Increase; higher = less potent
Protocol: as §1

Danio rerio embryo [26] = assay: EC20 Eye-jaw distance_Decrease; higher = less potent; conditions: exposure time: 4 dpf
Protocol: as §1

Danio rerio embryo [27] = assay: EC10 Eye-jaw distance_Decrease; higher = less potent; conditions: exposure time: 4 dpf
Protocol: as §1

Danio rerio embryo [28] = assay: EC20 Otolith-eye distance_Decrease; higher = less potent; conditions: exposure time: 4 dpf
Protocol: as §1

Danio rerio embryo [29] = assay: EC10 Otolith-eye distance_Decrease; higher = less potent; conditions: exposure time: 4 dpf
Protocol: as §1

Danio rerio embryo [30] = assay: spontaneous tail coiling frequency (coils/min/embryo); higher = more spontaneous movement; conditions: 25 hpf
Protocol: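 Spontaneous tail coilings of zebrafish embryos exposed from 2 hpf were recorded at 24-25 hpf in 1-min videos and detected by a KNIME workflow from grey-value variance. Betamethasone was tested as the dipropionate, diflorasone as the diacetate.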

CC(C)(C)C(O)C(Oc1ccc(Cl)cc1)n1cncn1 (stereo unspecified) [Triadimenol]
Conditions	EC10 Any effect [µM]	EC10 Body length Decrease [µM]	EC10 Curvature Increase [µM]	EC10 Pericard size Increase [µM]	EC20 Any effect [µM]	EC20 Body length Decrease [µM]	EC20 Curvature Increase [µM]	EC20 Eye size Decrease [µM]	EC20 Pericard size Increase [µM]	EC50 Any effect [µM]	EC50 Body length Decrease [µM]	EC50 Curvature Increase [µM]	EC50 Pericard size Increase [µM]	EC50 STC decrease [µM]	spontaneous tail coiling frequency
Danio rerio embryo [1], exposure time: 2 dpf	–	–	–	–	–	–	–	–	–	133	–	–	–	–	–
Danio rerio embryo [1], exposure time: 4 dpf	–	–	–	–	–	–	–	–	–	45.5	–	–	–	–	–
Danio rerio embryo [1], exposure time: 25 h	–	–	–	–	–	–	–	–	–	–	–	–	–	169	–
Danio rerio embryo [3], exposure time: 2 dpf	–	–	–	–	–	–	–	–	–	–	–	136	–	–	–
Danio rerio embryo [3], exposure time: 4 dpf	–	–	–	–	–	–	–	–	–	–	–	117	–	–	–
Danio rerio embryo [4], exposure time: 2 dpf	–	–	–	–	–	–	–	–	–	–	169	–	–	–	–
Danio rerio embryo [4], exposure time: 4 dpf	–	–	–	–	–	–	–	–	–	–	106	–	–	–	–
Danio rerio embryo [6], exposure time: 2 dpf	–	–	–	–	–	–	–	–	–	–	–	–	225	–	–
Danio rerio embryo [6], exposure time: 4 dpf	–	–	–	–	–	–	–	–	–	–	–	–	84.3	–	–
Danio rerio embryo [12], exposure time: 2 dpf	–	–	–	–	127	–	–	–	–	–	–	–	–	–	–
Danio rerio embryo [12], exposure time: 4 dpf	–	–	–	–	31.7	–	–	–	–	–	–	–	–	–	–
Danio rerio embryo [13], exposure time: 2 dpf	123	–	–	–	–	–	–	–	–	–	–	–	–	–	–
Danio rerio embryo [13], exposure time: 4 dpf	25.7	–	–	–	–	–	–	–	–	–	–	–	–	–	–
Danio rerio embryo [14], exposure time: 2 dpf	–	–	–	–	–	–	–	159	–	–	–	–	–	–	–
Danio rerio embryo [14], exposure time: 4 dpf	–	–	–	–	–	–	–	90.2	–	–	–	–	–	–	–
Danio rerio embryo [15], exposure time: 2 dpf	–	–	116	–	–	–	–	–	–	–	–	–	–	–	–
Danio rerio embryo [15], exposure time: 4 dpf	–	–	67.2	–	–	–	–	–	–	–	–	–	–	–	–
Danio rerio embryo [16], exposure time: 2 dpf	–	–	–	–	–	–	123	–	–	–	–	–	–	–	–
Danio rerio embryo [16], exposure time: 4 dpf	–	–	–	–	–	–	82.4	–	–	–	–	–	–	–	–
Danio rerio embryo [18], exposure time: 2 dpf	–	–	–	–	–	98.6	–	–	–	–	–	–	–	–	–
Danio rerio embryo [18], exposure time: 4 dpf	–	–	–	–	–	82.5	–	–	–	–	–	–	–	–	–
Danio rerio embryo [19], exposure time: 2 dpf	–	71.8	–	–	–	–	–	–	–	–	–	–	–	–	–
Danio rerio embryo [19], exposure time: 4 dpf	–	71.3	–	–	–	–	–	–	–	–	–	–	–	–	–
Danio rerio embryo [23], exposure time: 2 dpf	–	–	–	–	–	–	–	–	146	–	–	–	–	–	–
Danio rerio embryo [23], exposure time: 4 dpf	–	–	–	–	–	–	–	–	71	–	–	–	–	–	–
Danio rerio embryo [25], exposure time: 2 dpf	–	–	–	113	–	–	–	–	–	–	–	–	–	–	–
Danio rerio embryo [25], exposure time: 4 dpf	–	–	–	64.1	–	–	–	–	–	–	–	–	–	–	–
Danio rerio embryo [30], 10.6 µM	–	–	–	–	–	–	–	–	–	–	–	–	–	–	2.49
Danio rerio embryo [30], 21.1 µM	–	–	–	–	–	–	–	–	–	–	–	–	–	–	2.29
Danio rerio embryo [30], 42.3 µM	–	–	–	–	–	–	–	–	–	–	–	–	–	–	3.32
Danio rerio embryo [30], 84.5 µM	–	–	–	–	–	–	–	–	–	–	–	–	–	–	2.24
Danio rerio embryo [30], 118.3 µM	–	–	–	–	–	–	–	–	–	–	–	–	–	–	1.91
Danio rerio embryo [30], 169.1 µM	–	–	–	–	–	–	–	–	–	–	–	–	–	–	1.28
Danio rerio embryo [30], 253.6 µM	–	–	–	–	–	–	–	–	–	–	–	–	–	–	0.06
Danio rerio embryo [30], 338.1 µM	–	–	–	–	–	–	–	–	–	–	–	–	–	–	0

Conditions	EC10 Bladder size Decrease [µM]	EC10 Eye-jaw distance Decrease [µM]	EC10 Head size Decrease [µM]	EC10 LMR dark [µM]	EC10 Otolith-eye distance Decrease [µM]	EC10 Yolk sac size Increase [µM]	EC20 Bladder size Decrease [µM]	EC20 Eye-jaw distance Decrease [µM]	EC20 LMR dark [µM]	EC20 Otolith-eye distance Decrease [µM]	EC20 Yolk sac size Increase [µM]	EC50 Bladder size Decrease [µM]	EC50 Eye-jaw distance Decrease [µM]	EC50 LMR dark [µM]	EC50 Otolith-eye distance Decrease [µM]	EC50 Yolk sac size Increase [µM]
Danio rerio embryo [2]	–	–	–	–	–	–	–	–	–	–	–	–	–	25.2	–	–
Danio rerio embryo [5]	–	–	–	–	–	–	–	–	–	–	–	20.7	–	–	–	–
Danio rerio embryo [7]	–	–	–	–	–	–	–	–	–	–	–	–	–	–	–	114
Danio rerio embryo [8]	–	–	–	–	–	–	–	–	–	–	–	–	51.4	–	–	–
Danio rerio embryo [9]	–	–	–	–	–	–	–	–	–	–	–	–	–	–	97.6	–
Danio rerio embryo [10]	–	–	–	6.51	–	–	–	–	–	–	–	–	–	–	–	–
Danio rerio embryo [11]	–	–	–	–	–	–	–	–	10.7	–	–	–	–	–	–	–
Danio rerio embryo [17]	–	–	132	–	–	–	–	–	–	–	–	–	–	–	–	–
Danio rerio embryo [20]	19.9	–	–	–	–	–	–	–	–	–	–	–	–	–	–	–
Danio rerio embryo [21]	–	–	–	–	–	–	20.2	–	–	–	–	–	–	–	–	–
Danio rerio embryo [22]	–	–	–	–	–	–	–	–	–	–	88.7	–	–	–	–	–
Danio rerio embryo [24]	–	–	–	–	–	76.8	–	–	–	–	–	–	–	–	–	–
Danio rerio embryo [26]	–	–	–	–	–	–	–	41.2	–	–	–	–	–	–	–	–
Danio rerio embryo [27]	–	36.1	–	–	–	–	–	–	–	–	–	–	–	–	–	–
Danio rerio embryo [28]	–	–	–	–	–	–	–	–	–	74.3	–	–	–	–	–	–
Danio rerio embryo [29]	–	–	–	–	63.4	–	–	–	–	–	–	–	–	–	–	–
